Assay results reported in publication PMC8228600, “Design, Synthesis, In Vitro and In Vivo Evaluation of Heterobivalent SiFAlin-Modified Peptidic Radioligands Targeting Both Integrin αvβ3 and the MC1 Receptor—Suitable for the Specific Visualization of Melanomas?” (Pharmaceuticals, 2021).
Like-named read-outs stand apart in the source and are kept apart here.

Tests used:
[1] = Ex vivo biodistribution: uptake in U87MG tumors and tumor-to-organ ratios; design: species or system nude mice (Balb/cAnNRj-Foxn1nu/nu); settings: male, Balb/cAnNRj-Foxn1nu/nu (nude), mouse, iv, total radioactivity; for tissue uptake: U87MG tumor (integrin αvβ3-positive); for tissue to tissue ratio: ex vivo biodistribution, mean (n = 3) ± SD
Experimental: (§1) For the evaluation of the in vivo pharmacokinetics, the two most promising HBPLs—[^18F]2 with the highest affinity to both target receptors and [^18F]4 with the highest hydrophilicity and still reasonable binding affinities—were selected. For PET/CT imaging, 6-week-old male nude mice (Balb/cAnNRj-Foxn1^nu/nu) were subcutaneously injected with 5 × 10^5 B16F10 cells into the right flank and 2.0–2.5 × 10^6 U87MG cells into the left flank to generate the respective receptor-positive tumors. When the tumors reached a sufficient size for imaging, each mouse was administered 4.15 ± 2.28 MBq of [^18F]2 or 3.95 ± 2.06 MBq of [^18F]4 via the lateral tail vein under isoflurane anesthesia. To determine the receptor specificity of both peptide parts of the labeled HBPLs and their relative contribution to overall tumor uptake, blocking experiments were also performed. […] After i.v. injection of the tracers, a dynamic PET scan, followed by a CT scan, was performed. The resulting PET/CT images and time–activity curves (TACs) are depicted in Figure 6, Figure 7 and Figure 8. After completion of the diagnostic scans, the mice were sacrificed, their organs (blood, spleen, liver, kidney, pancreas, lung, heart, brain, bone, muscle, tail, tumors, stomach, colon and small intestine) were collected and measured in a γ-counter for ex vivo biodistribution (see Supplementary Materials Table S1 for detailed results).
(§2) Each male nude mouse (six weeks old) was injected subcutaneously with 5 × 10^5 B16F10 cells into the right flank and 2.0–2.5 × 10^6 U87MG cells into the left flank. The health status and tumor growth of the mice were monitored regularly until the animals could be examined after 15–21 days, depending on the tumor size. For the in vivo experiments, the ^18F-radiolabeled compound was diluted in 0.9% saline to give a final EtOH concentration of <10%. Each mouse was injected with 4.15 ± 2.28 MBq of [^18F]2 or 3.95 ± 2.06 MBq of [^18F]4 via the lateral tail vein under isoflurane anesthesia. […] Each ^18F-labeled compound was studied with or without blocking in at least three mice. Mice were measured under isoflurane anesthesia in a small PET/SPECT/CT animal imaging system. First, a dynamic PET scan was performed over 90 min and the scan was framed in 29 timeframes (10 × 1 min, 10 × 2 min, 6 × 5 min, 3 × 10 min). Images were reconstructed using 12 iterations, a maximum likelihood expectation maximization (MLEM) algorithm including corrections for scattered radiation and decay and a voxel size of 0.5 mm. All PET scans were immediately followed by CT acquisition at a voltage of 45 kV and a current of 400 μA. The images were reconstructed using the filtered back projection (FBP) algorithm with a voxel size of 250 μm. The analysis of the data, including the generation of TACs of the kidneys, liver and tumors and the MIPs, was performed via PMOD (v3.8). For ex vivo biodistribution, the mice were sacrificed directly after the PET/CT scan. Organs (blood, spleen, liver, kidneys, pancreas, lungs, heart, brain, bone, muscle, tail, tumors, stomach, colon and small intestine) were collected, weighed and their radioactivity measured in a γ-counter. The percentage injected dose per gram (% ID/g) of each tissue was calculated from the determined values, organ weights, reference values and injected activity.

[2] = test system: integrin αvβ3-positive U87MG tumors; assay: as above; design: species or system nude mice (Balb/cAnNRj-Foxn1nu/nu); settings: c(RGDyK) blocking (200 μg coinjected); ex vivo after PET/CT scan; i.v.; n = 3
Experimental: as §1, §2

[3] = Ex vivo biodistribution in tumor-bearing nude mice (non-tumor tissues); settings: male, Balb/cAnNRj-Foxn1nu/nu (nude), mouse, iv, total radioactivity, ex vivo after PET/CT scan, i.v., n = 3
Experimental: as §1, §2

SMILES: CCCC[C@H](NC(=O)CNC(=O)CNC(=O)CCOCCOCCOCCOCCOCCOCCOCCOCCOCCC(=O)NCCCN(CCCNC(=O)CCOCCOCCOCCOCCOCCOCCOCCOCCOCCC(=O)NCCCC[C@@H]1NC(=O)[C@@H](Cc2ccccc2)NC(=O)[C@H](CC(=O)O)NC(=O)CNC(=O)[C@H](CCCNC(=N)N)NC1=O)CC(=O)N[C@@H](CCCCNC(=O)CCC[N+](C)(C)Cc1ccc([Si](F)(C(C)(C)C)C(C)(C)C)cc1)C(N)=O)C(=O)N[C@H]1CC(=O)NCCCC[C@@H](C(N)=O)NC(=O)[C@H](Cc2c[nH]c3ccccc23)NC(=O)[C@H](CCCNC(=N)N)NC(=O)[C@@H](Cc2ccccc2)NC(=O)[C@H](Cc2c[nH]cn2)NC1=O [[^18F]4]
- tissue uptake ([1]; NDP blocking (20 μg coinjected), ex vivo after PET/CT scan, i.v., n = 3): 2.53 ± 0.15 %ID/g
- tissue uptake ([1]; c(RGDyK) blocking (200 μg coinjected), ex vivo after PET/CT scan, i.v., n = 3): 2.67 ± 0.66 %ID/g
- tissue uptake ([1]; double blocking (NDP + c(RGDyK)), ex vivo after PET/CT scan, i.v., n = 3): 0.9 ± 0.05 %ID/g
- tissue uptake ([1]; without blocking, ex vivo after PET/CT scan, i.v., n = 3): 3.92 ± 1.31 %ID/g
- tissue to tissue ratio ([1]; U87MG tumor / blood, without blocking, read-out: tumor/blood ratio, U87MG): 5.08 ± 0.75
- tissue to tissue ratio ([1]; U87MG tumor / kidneys, without blocking, read-out: tumor/kidneys ratio, U87MG): 0.4 ± 0.07
- tissue to tissue ratio ([1]; U87MG tumor / liver, without blocking, read-out: tumor/liver ratio, U87MG): 0.39 ± 0.14
- tissue to tissue ratio ([1]; U87MG tumor / muscle, without blocking, read-out: tumor/muscle ratio, U87MG): 45.7 ± 8.62
- tissue uptake at 1.5 h ([1]; U87MG tumor, without blocking, ex vivo after PET/CT scan, i.v., n = 3): 3.92 ± 1.31 %ID/g
- ID/g, U87MG tumor [2]: 2.67 ± 0.66 % ID/g
- tissue uptake at 1.5 h ([3]; blood, NDP blocking (20 μg coinjected), read-out: ID/g, blood): 2.07 ± 0.94 %ID/g
- tissue uptake at 1.5 h ([3]; blood, c(RGDyK) blocking (200 μg coinjected), read-out: ID/g, blood): 0.83 ± 0.06 %ID/g
- tissue uptake at 1.5 h ([3]; blood, double blocking (NDP + c(RGDyK)), read-out: ID/g, blood): 1 ± 0.15 %ID/g
- tissue uptake at 1.5 h ([3]; blood, without blocking, read-out: ID/g, blood): 0.59 ± 0.08 %ID/g
- tissue uptake at 1.5 h ([3]; bone, NDP blocking (20 μg coinjected), read-out: ID/g, bone): 4.61 ± 0.71 %ID/g
- tissue uptake at 1.5 h ([3]; bone, c(RGDyK) blocking (200 μg coinjected), read-out: ID/g, bone): 4.99 ± 0.71 %ID/g
- tissue uptake at 1.5 h ([3]; bone, double blocking (NDP + c(RGDyK)), read-out: ID/g, bone): 2.99 ± 0.78 %ID/g
- tissue uptake at 1.5 h ([3]; bone, without blocking, read-out: ID/g, bone): 18.1 ± 6.02 %ID/g
- tissue uptake at 1.5 h ([3]; brain, NDP blocking (20 μg coinjected), read-out: ID/g, brain): 0.19 ± 0.07 %ID/g
- tissue uptake at 1.5 h ([3]; brain, c(RGDyK) blocking (200 μg coinjected), read-out: ID/g, brain): 0.07 ± 0.02 %ID/g
- tissue uptake at 1.5 h ([3]; brain, double blocking (NDP + c(RGDyK)), read-out: ID/g, brain): 0.07 ± 0.01 %ID/g
- tissue uptake at 1.5 h ([3]; brain, without blocking, read-out: ID/g, brain): 0.1 ± 0.03 %ID/g
- tissue uptake ([3]; colon, NDP blocking (20 μg coinjected), read-out: ID/g, colon): 0.96 ± 0.13 %ID/g
- tissue uptake ([3]; colon, c(RGDyK) blocking (200 μg coinjected), read-out: ID/g, colon): 0.8 ± 0.32 %ID/g
- tissue uptake ([3]; colon, double blocking (NDP + c(RGDyK)), read-out: ID/g, colon): 0.42 ± 0.05 %ID/g
- tissue uptake ([3]; colon, without blocking, read-out: ID/g, colon): 0.77 ± 0.26 %ID/g
- tissue uptake at 1.5 h ([3]; heart, NDP blocking (20 μg coinjected), read-out: ID/g, heart): 0.73 ± 0.06 %ID/g
- tissue uptake at 1.5 h ([3]; heart, c(RGDyK) blocking (200 μg coinjected), read-out: ID/g, heart): 1.51 ± 0.57 %ID/g
- tissue uptake at 1.5 h ([3]; heart, double blocking (NDP + c(RGDyK)), read-out: ID/g, heart): 0.52 ± 0.06 %ID/g
- tissue uptake at 1.5 h ([3]; heart, without blocking, read-out: ID/g, heart): 0.56 ± 0.19 %ID/g
- tissue uptake at 1.5 h ([3]; kidneys, NDP blocking (20 μg coinjected), read-out: ID/g, kidneys): 23.1 ± 4.97 %ID/g
- tissue uptake at 1.5 h ([3]; kidneys, c(RGDyK) blocking (200 μg coinjected), read-out: ID/g, kidneys): 21.4 ± 4.04 %ID/g
- tissue uptake at 1.5 h ([3]; kidneys, double blocking (NDP + c(RGDyK)), read-out: ID/g, kidneys): 26.5 ± 6.59 %ID/g
- tissue uptake at 1.5 h ([3]; kidneys, without blocking, read-out: ID/g, kidneys): 7.72 ± 2.57 %ID/g
- tissue uptake at 1.5 h ([3]; liver, NDP blocking (20 μg coinjected), read-out: ID/g, liver): 5.16 ± 0.56 %ID/g
- tissue uptake at 1.5 h ([3]; liver, c(RGDyK) blocking (200 μg coinjected), read-out: ID/g, liver): 10.4 ± 3.65 %ID/g
- tissue uptake at 1.5 h ([3]; liver, double blocking (NDP + c(RGDyK)), read-out: ID/g, liver): 4.04 ± 1.06 %ID/g
- tissue uptake ([3]; liver, without blocking, read-out: ID/g, liver): 8.3 ± 2.77 %ID/g
- tissue uptake at 1.5 h ([3]; lung, NDP blocking (20 μg coinjected), read-out: ID/g, lung): 1.25 ± 0.06 %ID/g
- tissue uptake at 1.5 h ([3]; lung, c(RGDyK) blocking (200 μg coinjected), read-out: ID/g, lung): 2.75 ± 1.04 %ID/g
- tissue uptake at 1.5 h ([3]; lung, double blocking (NDP + c(RGDyK)), read-out: ID/g, lung): 0.88 ± 0.14 %ID/g
- tissue uptake at 1.5 h ([3]; lung, without blocking, read-out: ID/g, lung): 3.45 ± 1.15 %ID/g
- tissue uptake at 1.5 h ([3]; muscle, NDP blocking (20 μg coinjected), read-out: ID/g, muscle): 0.63 ± 0.07 %ID/g
- tissue uptake at 1.5 h ([3]; muscle, c(RGDyK) blocking (200 μg coinjected), read-out: ID/g, muscle): 1.62 ± 0.42 %ID/g
- tissue uptake at 1.5 h ([3]; muscle, double blocking (NDP + c(RGDyK)), read-out: ID/g, muscle): 2.58 ± 1.28 %ID/g
- tissue uptake at 1.5 h ([3]; muscle, without blocking, read-out: ID/g, muscle): 0.07 ± 0.02 %ID/g
- tissue uptake at 1.5 h ([3]; pancreas, NDP blocking (20 μg coinjected), read-out: ID/g, pancreas): 0.52 ± 0.12 %ID/g
- tissue uptake at 1.5 h ([3]; pancreas, c(RGDyK) blocking (200 μg coinjected), read-out: ID/g, pancreas): 0.66 ± 0.19 %ID/g
- tissue uptake at 1.5 h ([3]; pancreas, double blocking (NDP + c(RGDyK)), read-out: ID/g, pancreas): 0.32 ± 0.04 %ID/g
- tissue uptake at 1.5 h ([3]; pancreas, without blocking, read-out: ID/g, pancreas): 0.25 ± 0.08 %ID/g
- tissue uptake ([3]; small intestine, NDP blocking (20 μg coinjected), read-out: ID/g, small intestine): 1.6 ± 0.26 %ID/g
- tissue uptake ([3]; small intestine, c(RGDyK) blocking (200 μg coinjected), read-out: ID/g, small intestine): 1.46 ± 0.53 %ID/g
- tissue uptake ([3]; small intestine, double blocking (NDP + c(RGDyK)), read-out: ID/g, small intestine): 0.54 ± 0.08 %ID/g
- tissue uptake ([3]; small intestine, without blocking, read-out: ID/g, small intestine): 0.07 ± 0.02 %ID/g
- tissue uptake ([3]; spleen, NDP blocking (20 μg coinjected), read-out: ID/g, spleen): 1.51 ± 0.15 %ID/g
- tissue uptake ([3]; spleen, c(RGDyK) blocking (200 μg coinjected), read-out: ID/g, spleen): 1.71 ± 0.62 %ID/g
- tissue uptake ([3]; spleen, double blocking (NDP + c(RGDyK)), read-out: ID/g, spleen): 0.69 ± 0.1 %ID/g
- tissue uptake ([3]; spleen, without blocking, read-out: ID/g, spleen): 1.79 ± 0.31 %ID/g
- tissue uptake ([3]; stomach, NDP blocking (20 μg coinjected), read-out: ID/g, stomach): 1.03 ± 0.11 %ID/g
- tissue uptake ([3]; stomach, c(RGDyK) blocking (200 μg coinjected), read-out: ID/g, stomach): 0.99 ± 0.16 %ID/g
- tissue uptake ([3]; stomach, double blocking (NDP + c(RGDyK)), read-out: ID/g, stomach): 0.42 ± 0.03 %ID/g
- tissue uptake ([3]; stomach, without blocking, read-out: ID/g, stomach): 0.38 ± 0.13 %ID/g
- tissue uptake at 1.5 h ([3]; tail, NDP blocking (20 μg coinjected), read-out: ID/g, tail): 52.8 ± 5.59 %ID/g
- tissue uptake at 1.5 h ([3]; tail, c(RGDyK) blocking (200 μg coinjected), read-out: ID/g, tail): 44.3 ± 12.1 %ID/g
- tissue uptake ([3]; tail, double blocking (NDP + c(RGDyK)), read-out: ID/g, tail): 55.6 ± 7.12 %ID/g
- tissue uptake at 1.5 h ([3]; tail, without blocking, read-out: ID/g, tail): 25.3 ± 8.43 %ID/g
